Series [1] deals with T1, QR1 (NQO1) (Homo sapiens, UniProt P15559).
T1 construct: purchased Sigma-Aldrich
Put plainly: Selectivity assay with QR1 in place of QR2, fluorescence readout. It is filed as biochemical.

A further series relates to HEK293T cells. Description: XTT cell viability assay. The settings on record: 3 h incubation, 20 nM-20 μM. The format is cell-based. The protocol:
HEK293FT cells were cultured with penicillin-streptomycin antibiotics in Invitrogen DMEM (Thermo Fisher Scientific) with 10% fetal bovine serum and L-glutamine and grown to 80-90% confluence in 100 mm plates, while being passaged every 2-3 days. For the XTT assay (Biological Industries), cells were then collected, centrifuged, and resuspended in fresh minimum essential medium, and seeded at 50,000 cells/well in 96-well, poly-L-lysine-coated Nunc black, clear flat-bottomed plates (Thermo Fisher Scientific). The next day, the cells were treated with increasing doses of QR2 inhibitors or vehicle for 3 h, and the XTT assay was then carried out as according to the manufacturer's instructions.

For a further series, the target named is T2, QR2 (Homo sapiens, UniProt P16083).
T2 sequence (P16083 1-231): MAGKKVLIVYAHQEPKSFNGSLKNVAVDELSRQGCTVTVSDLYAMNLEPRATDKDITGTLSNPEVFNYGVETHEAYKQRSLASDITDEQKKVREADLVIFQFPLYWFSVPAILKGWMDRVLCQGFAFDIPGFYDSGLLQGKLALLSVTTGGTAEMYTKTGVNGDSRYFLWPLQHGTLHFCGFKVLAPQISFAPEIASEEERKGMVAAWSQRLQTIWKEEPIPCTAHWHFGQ
Description: QR2 enzymatic activity assay (menadione/BNAH), fluorescence readout. The arrangement: purchased Sigma-Aldrich. It is filed as biochemical.

The test system of another series is THLE-2 cells. Put plainly: Cell toxicity assay (ATP depletion, CellTiter Glo). The settings on record: 72 h incubation, CellTiter Glo. Background: In ATP-based viability assays light output follows the ATP content of the culture.
Another series concerns 5×FAD mice. Put plainly: Weight, drinking rate and wellbeing of 5×FAD mice under treatment in drinking water. The settings on record: for average weight: 25 days, drinking water.
Series [2] addresses T1, QR1 (NQO1). Description: Selectivity assay with QR1 in place of QR2, absorbance readout. It is filed as biochemical.

As usually defined, the IC50 is the concentration that gives 50% inhibition. A low value points to greater potency.

SMILES strings stand for the structures. Where “and” joins values, the source holds several entries; their conditions need not be identical. Equal values may be shown once. Where a name gives a salt, the structure may show the parent alone.

T1 sequence (P15559 whole entry): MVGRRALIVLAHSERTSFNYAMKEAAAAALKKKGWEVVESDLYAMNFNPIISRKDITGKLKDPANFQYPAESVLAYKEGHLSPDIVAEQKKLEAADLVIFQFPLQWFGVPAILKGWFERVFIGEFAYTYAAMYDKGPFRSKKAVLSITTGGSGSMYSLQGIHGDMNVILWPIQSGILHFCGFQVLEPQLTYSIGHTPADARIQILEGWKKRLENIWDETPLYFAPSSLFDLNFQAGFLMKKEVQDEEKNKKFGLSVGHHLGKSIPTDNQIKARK

Consider `Cc1ccc(-c2cn3cccc(C)c3n2)cc1S(=O)(=O)N1CCNCC1` [YB-537, 8-methyl-2-(4-methyl-3-(piperazin-1-ylsulfonyl)phenyl)imidazo[1,2-a]pyridine hydrochloride], for which the IC50 on QR1 (NQO1) [1] came to 18.4 µM; at QR2, 0.03 µM. In the series on HEK293T cells, the “toxicity in XTT assay” value is reported as “no toxicity”. For the same compound, the “median lethal dose (LD50) in THLE cells” value in the series with THLE-2 cells is above 100 µM. The “adverse effects during month-long treatment” value in the series on 5×FAD mice (5×FAD both sexes, 50 mg/kg in drinking water) is on record as “no adverse effects were seen”. Further, the average drinking rate came out at 0.170 ± 0.011 mL/g/day with 5×FAD mice (5×FAD females) and 0.170 ± 0.035 mL/g/day in the series with 5×FAD mice (5×FAD males). In addition, the average weight in the series with 5×FAD mice (5×FAD females) amounted to 22.76 ± 0.192 g; in the series on 5×FAD mice (5×FAD males), 32.56 ± 0.279 g.
With `Cc1cccn2cc(-c3cccc(S(=O)(=O)N4CCC(C)CC4)c3)nc12` [YB-800], the IC50 is above 9.99 µM at QR1 (NQO1) [2], above 9.99 µM against QR1 (NQO1) [1] and 0.03 µM against QR2. The “toxicity in XTT assay” value in the series on HEK293T cells is recorded as “no toxicity”. Further, the “median lethal dose (LD50) in THLE cells” value with THLE-2 cells was 78.4 µM and 78.401 µM.

For the origin of these results see patent US20240228481A1, “NOVEL SULFONAMIDE SERIES OF QR2 INHIBITORS TO TACKLE OXIDATIVE STRESS AND COGNITIVE DECLINE” (CARMEL HAIFA UNIVERSITY ECONOMIC CORPORATION LTD., priority 2021, published 2024).
